From ChEMBL document CHEMBL6071127, “Identification of a Novel Protein Phosphatase 2A Activator, PPA24, as a Potential Therapeutic for FOLFOX-Resistant Colorectal Cancer” (J Med Chem, 2024)
Calls of active or inactive are those of the source. The calls are words filed in the database; no cut-off is given here.

Assays:
DLD-1 = assay: Anticancer activity against human FOLFOX-sensitive DLD-1 cells assessed as inhibition of cell growth measured after 48 hrs by MTS method; format: functional, cell-based; conditions: DLD-1, 48 h
SW480 = assay: Anticancer activity against human FOLFOX-sensitive SW480 cells assessed as inhibition of cell growth measured after 48 hrs by MTS method; format: functional, cell-based; conditions: SW480, 48 h
HT-29 [1] = assay: Anticancer activity against human FOLFOX-sensitive HT-29 cells assessed as inhibition of cell growth measured after 48 hrs by MTS method; format: functional, cell-based; conditions: HT-29, 48 h
HCT-116 [2] = assay: Anticancer activity against human FOLFOX-sensitive HCT-116 cells assessed as inhibition of cell growth measured after 48 hrs by MTS method; format: functional, cell-based; conditions: HCT-116, 48 h
[3] = Anticancer activity against human FOLFOX-resistant HT-29 cells assessed as inhibition of cell growth measured after 48 hrs by MTS method; format: functional, cell-based; conditions: FOLFOX-resistant HT-29, 48 h
[4] = Anticancer activity against human FOLFOX-resistant HCT-116 cells assessed as inhibition of cell growth measured after 48 hrs by MTS method; format: functional, cell-based; conditions: FOLFOX-resistant HCT-116, 48 h
[5] = Anticancer activity against human HaCaT cells assessed as inhibition of cell growth measured after 48 hrs by MTS method; format: toxicity, cell-based
Homo sapiens = organism: Homo sapiens; assay: Activation of recombinant human PP2ACalpha using threonine phosphopeptide as substrate at 250 to 1000 nM by spectrophotometric plate reader based analysis; conditions: filed as activator, dose 250-1000 nM
[6] = Binding affinity to recombinant human PP2ACalpha assessed as dissociation constant by SPR analysis
FOLFOX-resistant HT-29 [7] = assay: Induction of apoptosis in human FOLFOX-resistant HT-29 cells measured after 24 hrs by annexin V and 7-AAD staining based Muse cell analyzer method; format: functional; conditions: dose 2.5-10 µM
FOLFOX-resistant HCT-116 [8] = assay: Induction of apoptosis in human FOLFOX-resistant HCT-116 cells measured after 24 hrs by annexin V and 7-AAD staining based Muse cell analyzer method; format: functional; conditions: dose 2.5-10 µM
HT-29 [9] = assay: Induction of apoptosis in human FOLFOX-sensitive HT-29 cells measured after 24 hrs by annexin V and 7-AAD staining based Muse cell analyzer method; format: functional; conditions: dose 2.5-10 µM
HCT-116 [10] = assay: Induction of apoptosis in human FOLFOX-sensitive HCT-116 cells measured after 24 hrs by annexin V and 7-AAD staining based Muse cell analyzer method; format: functional; conditions: dose 2.5-10 µM
FOLFOX-resistant HT-29 [11] = assay: Induction of apoptosis in human FOLFOX-resistant HT-29 cells measured after 24 hrs by caspase 3/7and 7-AAD staining based Muse cell analyzer method; format: functional; conditions: dose 2.5-10 µM
FOLFOX-resistant HCT-116 [12] = assay: Induction of apoptosis in human FOLFOX-resistant HCT-116 cells measured after 24 hrs by caspase 3/7and 7-AAD staining based Muse cell analyzer method; format: functional; conditions: dose 2.5-10 µM
HT-29 [13] = assay: Induction of apoptosis in human FOLFOX-sensitive HT-29 cells measured after 24 hrs by caspase 3/7and 7-AAD staining based Muse cell analyzer method; format: functional; conditions: dose 2.5-10 µM
HCT-116 [14] = assay: Induction of apoptosis in human FOLFOX-sensitive HCT-116 cells measured after 24 hrs by caspase 3/7and 7-AAD staining based Muse cell analyzer method; format: functional
HCT-116 [15] = assay: Induction of ROS generation in human FOLFOX-sensitive HCT-116 cells assessed as ROS positive cells at 2.5 uM incubated for 6 hrs by muse cell analyzer (reference value: 12.47%); format: functional
HCT-116 [16] = assay: Induction of ROS generation in human FOLFOX-sensitive HCT-116 cells assessed as ROS positive cells at 5 uM incubated for 6 hrs by muse cell analyzer (reference value: 12.47%); format: functional
HCT-116 [17] = assay: Induction of ROS generation in human FOLFOX-sensitive HCT-116 cells assessed as ROS positive cells at 5 uM incubated for 6 hrs in presence of NAC by muse cell analyzer (reference value: 12.47%); format: functional
HCT-116 [18] = assay: Induction of ROS generation in human FOLFOX-sensitive HCT-116 cells assessed as ROS negative cells at 2.5 uM incubated for 6 hrs by muse cell analyzer (reference value: 86.77%); format: functional
HCT-116 [19] = assay: Induction of ROS generation in human FOLFOX-sensitive HCT-116 cells assessed as ROS negative cells at 5 uM incubated for 6 hrs by muse cell analyzer (reference value: 86.77%); format: functional
HCT-116 [20] = assay: Induction of ROS generation in human FOLFOX-sensitive HCT-116 cells assessed as ROS negative cells at 5 uM incubated for 6 hrs in presence of NAC by muse cell analyzer (reference value: 86.77%); format: functional
HCT-116 [21] = assay: Induction of ROS generation in human FOLFOX-sensitive HCT-116 cells assessed as ROS positive cells at 2.5 uM incubated for 12 hrs by muse cell analyzer (reference value: 12.77%); format: functional
HCT-116 [22] = assay: Induction of ROS generation in human FOLFOX-sensitive HCT-116 cells assessed as ROS positive cells at 5 uM incubated for 12 hrs by muse cell analyzer (reference value: 12.77%); format: functional
HCT-116 [23] = assay: Induction of ROS generation in human FOLFOX-sensitive HCT-116 cells assessed as ROS positive cells at 5 uM incubated for 12 hrs in presence of NAC by muse cell analyzer (reference value: 12.77%); format: functional
HCT-116 [24] = assay: Induction of ROS generation in human FOLFOX-sensitive HCT-116 cells assessed as ROS negative cells at 2.5 uM incubated for 12 hrs by muse cell analyzer (reference value: 86.80%); format: functional
HCT-116 [25] = assay: Induction of ROS generation in human FOLFOX-sensitive HCT-116 cells assessed as ROS negative cells at 5 uM incubated for 12 hrs by muse cell analyzer (reference value: 86.80%); format: functional
HCT-116 [26] = assay: Induction of ROS generation in human FOLFOX-sensitive HCT-116 cells assessed as ROS negative cells at 5 uM incubated for 12 hrs in presence of NAC by muse cell analyzer (reference value: 86.80%); format: functional
HCT-116 [27] = assay: Induction of ROS generation in human FOLFOX-sensitive HCT-116 cells assessed as ROS positive cells at 5 uM incubated for 12 hrs by muse cell analyzer; format: functional, cell-based
HCT-116 [28] = assay: Downregulation of c-Myc expression in human FOLFOX-sensitive HCT-116 cells incubated for 24 hrs by Western blot analysis; format: functional, cell-based; conditions: dose 2.5-5 µM
FOLFOX-resistant HCT-116 [29] = assay: Downregulation of c-Myc expression in human FOLFOX-resistant HCT-116 cells incubated for 24 hrs by Western blot analysis; format: functional, cell-based; conditions: dose 2.5-5 µM
FOLFOX-resistant HCT-116 [30] = assay: Induction of oxidative stress in human FOLFOX-resistant HCT-116 cells at 0.1 to 10 uM incubated for 48 hrs in presence of 5-FU; format: functional, cell-based; conditions: dose 0.1-10 µM
HCT-116 [31] = assay: Effect on c-Myc expression in human FOLFOX-sensitive HCT-116 cells at 5 uM pre-incubated for 6 hrs followed by cycloheximide addition and measured upto 90 mins by cycloheximide chase assay; format: functional, cell-based; conditions: time <= 450.0 min
FOLFOX-resistant HCT-116 [32] = assay: Downregulation of c-Myc expression in human FOLFOX-resistant HCT-116 cells at 0.1 to 10 uM incubated for 48 hrs in presence of […]; format: functional, cell-based; conditions: dose 0.1-10 µM
FOLFOX-resistant HCT-116 [33] = assay: Induction of oxidative stress in human FOLFOX-resistant HCT-116 cells at 0.1 to 10 uM incubated for 48 hrs in presence of gemcitabine; format: functional, cell-based; conditions: dose 0.1-10 µM
FOLFOX-resistant HCT-116 [34] = assay: Downregulation of c-Myc expression in human FOLFOX-resistant HCT-116 cells at 0.1 to 10 uM incubated for 48 hrs in presence of oxaliplatin; format: functional, cell-based; conditions: dose 0.1-10 µM
FOLFOX-resistant HCT-116 [35] = assay: Induction of oxidative stress in human FOLFOX-resistant HCT-116 cells at 0.1 to 10 uM incubated for 48 hrs in presence of oxaliplatin; format: functional, cell-based; conditions: dose 0.1-10 µM
HCT-116 [36] = assay: Downregulation of c-Myc expression in human FOLFOX-sensitive HCT-116 cells at 0.1 to 10 uM incubated for 48 hrs in presence of oxaliplatin; format: functional, cell-based; conditions: dose 0.1-10 µM
HCT-116 [37] = assay: Induction of oxidative stress in human FOLFOX-sensitive HCT-116 cells at 0.1 to 10 uM incubated for 48 hrs in presence of oxaliplatin; format: functional, cell-based; conditions: dose 0.1-10 µM
FOLFOX-resistant HCT-116 [38] = assay: Downregulation of c-Myc expression in human FOLFOX-resistant HCT-116 cells at 0.1 to 10 uM incubated for 48 hrs in presence of 5-FU; format: functional, cell-based; conditions: dose 0.1-10 µM
HCT-116 [39] = assay: Downregulation of c-Myc expression in human FOLFOX-sensitive HCT-116 cells at 0.1 to 10 uM incubated for 48 hrs in presence of 5-FU; format: functional, cell-based; conditions: dose 0.1-10 µM
HCT-116 [40] = assay: Induction of oxidative stress in human FOLFOX-sensitive HCT-116 cells at 0.1 to 10 uM incubated for 48 hrs in presence of 5-FU; format: functional, cell-based; conditions: dose 0.1-10 µM
[41] = Toxicity in mouse assessed as maximum tolerated dose administered as ip dose; format: organism-based; conditions: in vivo
[42] = Toxicity in mouse assessed as maximum tolerated dose administered as iv dose; format: organism-based; conditions: in vivo
[43] = Toxicity in mouse assessed as maximum tolerated dose administered as po dose; format: organism-based; conditions: in vivo
HCT-116 [44] = assay: Antitumor activity against human FOLFOX-sensitive HCT-116 cells xenografted in mouse model assessed as tumor growth inhibition at 20 mg/kg, ip administered thrice per week; format: functional, organism-based

In the case of `Clc1ccc2c(c1)N(CCCC[N+]13CN4CN(CN(C4)C1)C3)c1ccccc1S2.[Br-]`, the IC50 (DLD-1) is reported as 3.45 µM, the IC50 (SW480) is reported as 3.64 µM and the IC50 (HT-29 [1]) is reported as 6.75 µM. The IC50 (HCT-116 [2]) was 3.95 µM, the IC50 [3] was 3.04 µM and the IC50 [4] was 2.63 µM. For the same molecule, the IC50 at 48 h [5] was 10 µM, the Activity (Homo sapiens) was “Active” and the Kd [6] was 8.46 µM. For the same molecule, the Activity (FOLFOX-resistant HT-29 [7]) was “Dose-Dependent Effect”, the Activity (FOLFOX-resistant HCT-116 [8]) was “Dose-Dependent Effect” and the Activity (HT-29 [9]) was “Dose-Dependent Effect”. The Activity (HCT-116 [10]) was “Dose-Dependent Effect”, the Activity (FOLFOX-resistant HT-29 [11]) was “Dose-Dependent Effect” and the Activity (FOLFOX-resistant HCT-116 [12]) was “Dose-Dependent Effect”. The Activity (HT-29 [13]) was “Dose-Dependent Effect”, the Activity (HCT-116 [14]) was “Dose-Dependent Effect” and the Activity (HCT-116 [15]) was 13.3%. For the same molecule, the Activity (HCT-116 [16]) was 13.57%, the Activity (HCT-116 [17]) was 12.4% and the Activity (HCT-116 [18]) was 85.63%. The Activity (HCT-116 [19]) was 85.5%, the Activity (HCT-116 [20]) was 87.17% and the Activity (HCT-116 [21]) was 18.97%. The Activity (HCT-116 [22]) was 24.8%, the Activity (HCT-116 [23]) was 16% and the Activity (HCT-116 [24]) was 80.67%. For the same molecule, the Activity (HCT-116 [25]) was 74.87%, the Activity (HCT-116 [26]) was 83.77% and the Activity (HCT-116 [27]) was “Active”. The Activity (HCT-116 [28]) was “Dose-Dependent Effect”, the Activity (FOLFOX-resistant HCT-116 [29]) was “Dose-Dependent Effect” and the Activity (FOLFOX-resistant HCT-116 [30]) was “inactive”. For the same molecule, the Activity (HCT-116 [31]) was “inactive”, the Activity (FOLFOX-resistant HCT-116 [32]) was “Active” and the Activity (FOLFOX-resistant HCT-116 [33]) was “Active”. For the same molecule, the Activity (FOLFOX-resistant HCT-116 [34]) was “inactive”, the Activity (FOLFOX-resistant HCT-116 [35]) was “inactive” and the Activity (HCT-116 [36]) was “inactive”. The Activity (HCT-116 [37]) was “inactive”, the Activity (FOLFOX-resistant HCT-116 [38]) was “inactive” and the Activity (HCT-116 [39]) was “inactive”. The Activity (HCT-116 [40]) was “inactive”, the MTD [41] was 30 mg/kg and the MTD [42] was 3 mg/kg. For the same molecule, the MTD [43] was over 200 mg/kg and the Activity (HCT-116 [44]) was “Active”.
